Legend:
[1] = molecular target: Leucine-rich repeat serine/threonine-protein kinase 2 (Homo sapiens, UniProt Q5S007, G2019S); assay: Inhibition of GST-tagged LRRK2 G2019S mutant (unknown origin) expressed in baculovirus expression system using fluorescein-labeled LRRKtide as substrate after 30 mins by Lanthascreen assay
[2] = molecular target: Leucine-rich repeat serine/threonine-protein kinase 2 (Homo sapiens, UniProt Q5S007); assay: Inhibition of recombinant wild-type GST-tagged LRRK2 (unknown origin) expressed in baculovirus expression system using fluorescein-labeled LRRKtide as substrate after 30 mins by Lanthascreen assay
Chain of Leucine-rich repeat serine/threonine-protein kinase 2 (Homo sapiens, UniProt Q5S007) (Q5S007 whole entry): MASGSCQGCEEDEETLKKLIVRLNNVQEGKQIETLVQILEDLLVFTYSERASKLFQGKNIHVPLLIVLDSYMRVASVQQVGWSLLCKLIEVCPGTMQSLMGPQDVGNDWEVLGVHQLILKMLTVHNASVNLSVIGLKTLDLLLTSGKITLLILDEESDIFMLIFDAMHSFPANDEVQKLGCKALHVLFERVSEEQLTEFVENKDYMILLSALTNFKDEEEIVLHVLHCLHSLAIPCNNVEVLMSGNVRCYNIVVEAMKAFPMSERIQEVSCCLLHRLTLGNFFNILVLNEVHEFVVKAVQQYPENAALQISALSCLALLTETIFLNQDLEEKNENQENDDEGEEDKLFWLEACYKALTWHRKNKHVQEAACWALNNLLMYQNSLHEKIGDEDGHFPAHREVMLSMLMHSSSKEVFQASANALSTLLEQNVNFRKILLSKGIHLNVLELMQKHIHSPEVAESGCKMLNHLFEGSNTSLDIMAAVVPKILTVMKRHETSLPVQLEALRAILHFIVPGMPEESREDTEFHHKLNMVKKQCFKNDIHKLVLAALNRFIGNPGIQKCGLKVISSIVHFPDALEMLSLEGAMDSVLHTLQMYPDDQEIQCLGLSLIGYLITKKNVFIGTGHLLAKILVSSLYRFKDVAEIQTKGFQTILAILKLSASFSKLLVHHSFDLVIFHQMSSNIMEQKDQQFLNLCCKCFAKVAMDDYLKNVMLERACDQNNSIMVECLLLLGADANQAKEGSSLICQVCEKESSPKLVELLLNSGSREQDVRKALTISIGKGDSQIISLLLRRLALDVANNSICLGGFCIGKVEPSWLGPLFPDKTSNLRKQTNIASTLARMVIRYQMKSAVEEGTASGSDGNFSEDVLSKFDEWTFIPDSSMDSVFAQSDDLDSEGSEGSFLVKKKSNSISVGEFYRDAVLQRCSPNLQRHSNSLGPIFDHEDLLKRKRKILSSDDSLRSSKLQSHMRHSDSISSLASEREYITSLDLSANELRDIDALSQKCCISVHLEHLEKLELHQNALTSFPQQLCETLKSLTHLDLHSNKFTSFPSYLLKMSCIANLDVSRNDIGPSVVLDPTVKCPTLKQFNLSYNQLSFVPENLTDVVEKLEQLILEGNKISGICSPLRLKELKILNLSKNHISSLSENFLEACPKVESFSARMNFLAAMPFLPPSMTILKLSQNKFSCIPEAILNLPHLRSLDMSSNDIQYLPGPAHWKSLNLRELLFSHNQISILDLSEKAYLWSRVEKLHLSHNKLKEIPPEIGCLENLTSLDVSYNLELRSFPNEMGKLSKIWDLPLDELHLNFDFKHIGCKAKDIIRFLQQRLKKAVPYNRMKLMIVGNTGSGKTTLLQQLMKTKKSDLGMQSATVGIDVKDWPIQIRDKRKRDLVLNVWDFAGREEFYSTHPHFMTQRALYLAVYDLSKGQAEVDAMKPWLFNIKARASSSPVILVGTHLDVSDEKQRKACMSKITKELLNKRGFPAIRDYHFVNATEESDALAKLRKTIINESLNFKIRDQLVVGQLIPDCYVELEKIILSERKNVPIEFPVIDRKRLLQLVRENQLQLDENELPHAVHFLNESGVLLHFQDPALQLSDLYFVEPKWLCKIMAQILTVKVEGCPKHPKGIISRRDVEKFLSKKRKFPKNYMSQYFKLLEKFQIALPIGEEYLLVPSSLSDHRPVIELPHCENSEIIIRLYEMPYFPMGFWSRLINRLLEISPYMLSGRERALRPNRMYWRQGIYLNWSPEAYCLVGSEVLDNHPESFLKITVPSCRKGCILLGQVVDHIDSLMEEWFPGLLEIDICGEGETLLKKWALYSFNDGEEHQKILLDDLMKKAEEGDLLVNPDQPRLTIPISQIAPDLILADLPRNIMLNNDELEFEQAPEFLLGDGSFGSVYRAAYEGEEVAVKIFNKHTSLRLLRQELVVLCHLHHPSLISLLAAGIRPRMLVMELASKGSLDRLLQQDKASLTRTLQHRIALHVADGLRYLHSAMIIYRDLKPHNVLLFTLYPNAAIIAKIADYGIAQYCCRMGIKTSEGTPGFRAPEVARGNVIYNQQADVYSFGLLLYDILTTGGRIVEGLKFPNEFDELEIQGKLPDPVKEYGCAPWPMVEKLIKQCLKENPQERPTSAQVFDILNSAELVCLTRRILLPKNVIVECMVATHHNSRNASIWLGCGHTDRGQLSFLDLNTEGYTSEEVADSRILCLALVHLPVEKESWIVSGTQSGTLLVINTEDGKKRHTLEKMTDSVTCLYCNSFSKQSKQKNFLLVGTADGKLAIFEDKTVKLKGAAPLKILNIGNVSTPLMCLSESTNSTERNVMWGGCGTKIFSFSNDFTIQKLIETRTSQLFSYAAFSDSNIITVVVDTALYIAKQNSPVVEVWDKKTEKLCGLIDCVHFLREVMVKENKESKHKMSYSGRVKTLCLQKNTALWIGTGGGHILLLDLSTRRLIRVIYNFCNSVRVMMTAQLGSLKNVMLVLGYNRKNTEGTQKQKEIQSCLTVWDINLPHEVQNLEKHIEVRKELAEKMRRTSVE

Chain of Leucine-rich repeat serine/threonine-protein kinase 2 (Homo sapiens, UniProt Q5S007, G2019S) (Q5S007 whole entry G2019S): as the sequence (Q5S007 whole entry) above, with G2019S counted along it

Which IC50 [1] does the source give for `[2H]C([2H])([2H])c1cnc(Cc2nc3cnc4ccc(Cl)cc4c3n2[C@@H]2CCO[C@H](C)C2)cn1` here?
The IC50 was 2.16 nM.

What does the source list for `Cc1nc(Cc2nc3cnc4ccc(C(F)(F)F)cc4c3n2[C@@H]2CCOCC2(F)F)no1`?
IC50 [2]: 25.7 nM; IC50 [1]: 26.5 nM

How did the IC50 [1] turn out when `CCc1nc2cnc3ccc(Cl)cc3c2n1[C@@H]1CCO[C@H](CC#N)C1` was run?
Its IC50 is 8.7 nM.

What does the source list for `N#Cc1ccc2ncc3nc(Cc4csnn4)n([C@@H]4CC[C@H](F)C4)c3c2c1` (relative stereo)?
IC50 [2]: 9.73 nM; IC50 [1]: 9.75 nM
